Test results reported in the CheMixHub drug solubility set.

Experiment: xn = mol fraction of the nth substance listed, in the solute-free solvent

Cc1[nH]c(=O)c(C#N)cc1-c1ccncc1 + OCCO + O
solubility (g/100 g solution)
Conditions | 278.15 K | 283.15 K | 288.15 K | 293.15 K | 298.15 K | 303.15 K | 308.15 K | 313.15 K | 318.15 K | 323.15 K
x2 = 0.03125 | 0.000882 | 0.00106 | 0.00125 | 0.00147 | 0.00171 | 0.00196 | 0.00222 | 0.00252 | 0.00285 | 0.00321
x2 = 0.06767 | 0.00131 | 0.00157 | 0.00185 | 0.00216 | 0.00252 | 0.00288 | 0.00326 | 0.0037 | 0.00417 | 0.0047
x2 = 0.1107 | 0.00189 | 0.00227 | 0.00266 | 0.00311 | 0.00362 | 0.00413 | 0.00467 | 0.00529 | 0.00595 | 0.0067
x2 = 0.1622 | 0.00264 | 0.00316 | 0.0037 | 0.00432 | 0.00502 | 0.00573 | 0.00647 | 0.00732 | 0.00821 | 0.00925
x2 = 0.225 | 0.00351 | 0.0042 | 0.00493 | 0.00575 | 0.00666 | 0.0076 | 0.00858 | 0.00971 | 0.0109 | 0.0123
x2 = 0.3034 | 0.00434 | 0.00527 | 0.00628 | 0.00732 | 0.00847 | 0.00967 | 0.0109 | 0.0123 | 0.0138 | 0.0155
x2 = 0.4038 | 0.00509 | 0.00622 | 0.00737 | 0.00855 | 0.00992 | 0.0116 | 0.0131 | 0.0148 | 0.0165 | 0.0186
x2 = 0.5373 | 0.00576 | 0.00696 | 0.00818 | 0.00966 | 0.0113 | 0.0129 | 0.0147 | 0.0167 | 0.0186 | 0.0211
x2 = 0.7232 | 0.00605 | 0.0074 | 0.00868 | 0.0102 | 0.0118 | 0.0135 | 0.0153 | 0.0174 | 0.0195 | 0.0223

Nc1nccnc1Cl + CO + O
solubility (g/100 g solution)
Conditions | 278.15 K | 283.15 K | 288.15 K | 293.15 K | 298.15 K | 303.15 K | 308.15 K | 313.15 K | 318.15 K | 323.15 K
x2 = 0.05881 | 0.0549 | 0.0728 | 0.0951 | 0.118 | 0.143 | 0.169 | 0.195 | 0.225 | 0.254 | 0.284
x2 = 0.1233 | 0.118 | 0.155 | 0.201 | 0.248 | 0.298 | 0.348 | 0.402 | 0.461 | 0.517 | 0.578
x2 = 0.1942 | 0.209 | 0.274 | 0.352 | 0.433 | 0.519 | 0.604 | 0.695 | 0.795 | 0.89 | 0.996
x2 = 0.2727 | 0.322 | 0.42 | 0.538 | 0.661 | 0.79 | 0.918 | 1.06 | 1.21 | 1.35 | 1.51
x2 = 0.3599 | 0.423 | 0.542 | 0.697 | 0.868 | 1.06 | 1.24 | 1.44 | 1.66 | 1.86 | 2.1
x2 = 0.4576 | 0.533 | 0.708 | 0.918 | 1.15 | 1.37 | 1.6 | 1.86 | 2.13 | 2.4 | 2.73
x2 = 0.5675 | 0.656 | 0.886 | 1.15 | 1.42 | 1.7 | 1.98 | 2.31 | 2.65 | 3.02 | 3.44
x2 = 0.6923 | 0.804 | 1.06 | 1.35 | 1.67 | 1.97 | 2.3 | 2.71 | 3.13 | 3.58 | 4.07
x2 = 0.835 | 0.917 | 1.2 | 1.55 | 1.95 | 2.37 | 2.78 | 3.25 | 3.75 | 4.25 | 4.86

CC(C)=CCCC(C)C1CCC2(C)C3=C(CCC12C)C1(C)CCC(O)C(C)(C)C1CC3 (stereo not given) + CC(C)O + O
solubility (g/100 g solution)
Conditions | 278.15 K | 288.15 K | 298.15 K | 308.15 K | 318.15 K
x2 = 0.01234 | 2.03e-05 | 2.81e-05 | 3.2e-05 | 3.94e-05 | 5.13e-05
x2 = 0.09088 | 0.000156 | 0.000176 | 0.000221 | 0.00024 | 0.000254
x2 = 0.2604 | 0.0158 | 0.0209 | 0.0306 | 0.0368 | 0.0456
x2 = 0.6874 | 0.147 | 0.272 | 0.373 | 0.472 | 0.64
